Two compounds from US9187784B2, “EphA4 is a disease modifier in motor neuron disease” (VIB VZW, priority 2011, dated 2015) can be followed below.

What all share (format): in vivo
The test system of data set [1] is zebrafish embryos with knockdown of Smn. The data set is described as follows: rescue of motor axon phenotype induced by knockdown of Smn (SMA model). Here is the method: FIG. 14: Inhibiting EphA4 signaling rescues motor axonopathies induced by overexpression of mutant TDP-43 and knockdown of Smn. Y-axes show motor axon length of zebrafish embryos (30 hpf) expressing TDP^WT (black bar) or TDP^A315T (white bar) (Panels A, B) or with unaltered (black bar) or reduced expression levels of Smn (white bar) (Panels C, D). Smn knockdown was established by injection of 3 ng (Panel C) or 6 ng (Panel D) atg-smn morpholino. Ctr-smn morpholino was injected as control. RTK1 signaling was inhibited by injection of 3 ng atg-RTK1 morpholino (shaded bars) (Panels A, C) or by treatment with C1 (500 μM, shaded bars) (Panels B, D). Injection of ctr-RTK1 morpholino and application of a 1/250 dilution of DMSO were used as control. […]
A morpholino database of translation-blocking morpholinos (atg-mo) was used to perform a morpholino-based knockdown screening in a zebrafish model for ALS.^13 The standard control morpholino (5′-[…]-′3) (SEQ ID NO:4), provided by Gene tools, was used as control. Three nanograms of morpholino were co-injected with 1.43 ng of SOD1 mRNA and the effect of gene knockdown on the mutant SOD1-induced axonopathy analyzed. […]

In a further data set the test system is RTK1. Description: RTK1 expression by Western blot and whole-mount immunostaining of zebrafish embryos. Particulars: Western blot of zebrafish embryos and whole-mount immunostaining of rhombomeres, 4.5 ng. The source says:
FIG. 1: EphA4 knockdown rescues mutant SOD1-induced motor axonopathy. […] Abnormal branching is indicated with arrowhead. Y-axes show motor axon length of zebrafish embryos expressing wild-type SOD1 (black bar, Panels D-G) or mutant SOD1 (white bar, Panels D-G). Knockdown of RTK2 in SOD1A4V- (Panel D), SOD1G93A- (Panel E) and SOD1G37R- (Panel F) expressing fish was established by co-injection of increasing amounts of atg-RTK2 morpholino (shaded bars). RTK1 expression was inhibited in SOD1A4V-expressing fish by co-injection of atg-RTK1 morpholino (shaded bars, Panel G). Ctr-RTK2 and ctr-RTK1 were used as control. ANOVA and Bonferroni's multiple comparison tests were used for statistical analysis. […]
Mice spinal cord and 30 hpf old, dechorionated and deyolked zebrafish embryos, and NSC-43 cells were homogenized in buffer: 50 mM Triz/HCl, pH 7.5, 120 mM NaCl, 1% TRITON® X-100, 1 mM sodium orthovanadaat, 2 mM PMSF, complete protease inhibitor (Roche). Protein concentration was determined using the micro-BCA protein assay reaction kit 207 (Pierce). […]

The subject of a further data set is zebrafish embryos. Description: Toxicity analysis of Compound 1 in zebrafish embryos (total body shape). Particulars: for death: read at 30 hpf; for malformed / normal: zebrafish, in vivo, 24 h. Here is the method: Different concentrations of C1 were dissolved in the water of 6 hpf-old zebrafish embryos. At 30 hpf, toxicity (%) of C1 was investigated by analyzing total body shape of the embryos.
A morpholino database of translation-blocking morpholinos (atg-mo) was used to perform a morpholino-based knockdown screening in a zebrafish model for ALS.^13 The standard control morpholino (5′-[…]-′3) (SEQ ID NO:4), provided by Gene tools, was used as control. Three nanograms of morpholino were co-injected with […] of SOD1 mRNA and the effect of gene knockdown on the mutant SOD1-induced axonopathy analyzed. Each morpholino was tested in two separate experiments. Only morphologically normal embryos were included for further analysis. Overexpression of SOD1 or TDP-43, applied to validate the protective morpholino, was established by injection of 1.76 ng SOD1 mRNA or 1.43 ng TDP-43 mRNA, respectively. Antisense morpholinos to knockdown zebrafish RTK1, RTK2, Smn and their five base pair-mismatch control morpholinos were developed by Gene tools: atg-RTK1 (5′-[…]-′3) (SEQ ID NO:5), atg-RTK2 (5′-[…]-[…]-′3) (SEQ ID NO:6), splice-RTK2 (5′-[…]-[…]-′3) (SEQ ID NO:7) and atg-smn (5′-[…]-3′) (SEQ ID NO:8). Compound 1 (2,5-dimethylpyrrolyl benzoic acid, Matrix Scientific) dissolved in DMSO was added to the water of 6-hpf-old zebrafish embryos.

In the case of “5′-CTGTGAACACAAGCGCAGCCATTGG-′3 (all phosphorodiamidate morpholino (PMO)) [atg-RTK1]”, the “effect on motor axon phenotype induced by knockdown of Smn” value in data set [1] is given as “rescued the motor axon phenotype induced by knockdown of Smn”. Also, the RTK1 expression result in the data set on RTK1 is “efficiently blocked RTK1 expression”.

Consider `Cc1ccc(C)n1-c1ccc(C(=O)O)c(O)c1` [Compound C1], for which the death with zebrafish embryos (C1 250 μM in water from 6 hpf) is recorded as 6.12%; in the data set on zebrafish embryos (C1 500 μM in water from 6 hpf), 2.80%; in the data set on zebrafish embryos (C1 750 μM in water from 6 hpf), 11.2%; with zebrafish embryos (C1 1000 μM in water from 6 hpf), 20%. Besides, the malformed with zebrafish embryos (250 μM) is 5.10%; in the data set with zebrafish embryos (500 μM), 3.74%; in the data set on zebrafish embryos (750 μM), 12.93%; with zebrafish embryos (1000 μM), 80%. Moreover, the normal came out at 88.77% in the data set on zebrafish embryos (250 μM), 93.45% in the data set with zebrafish embryos (500 μM), 75.86% in the data set with zebrafish embryos (750 μM) and 0% with zebrafish embryos (1000 μM).
